“And” between values parts separate entries of the source, which are not always exact repeats. Equal values may be shown once.
Tested on: SYO-1 tumor spheroids, viability % test/control
Assay: Anticancer human tumor SYO-1 cell line growth inhibition;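 further: spheroids exposed to agents for 7 days before viability read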;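 on viability, T/C: 100% = DMSO vehicle control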
Details: spheroids with HUVEC and MSC; for viability, T/C: stronger effect = lower value; active means viability on the fitted dose curve at most 10% of control; inactive means the rest
Outline: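 Complex spheroids of malignant cells with endothelial cells and mesenchymal stem cells; agents alone or combined, from near clinical Cmax (or 10 microM if unknown) down in half-log steps, 0.25% DMSO final.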

CNCc1ccc(-c2cc(-c3nc(-c4ccc(S(=O)(=O)C(C)C)cc4)cnc3N)on2)cc1 + CC[C@@]1(O)C(=O)OCc2c1cc1n(c2=O)Cc2cc3c(CN(C)C)c(O)ccc3nc2-1
active: viability, T/C (second compound 0.003 µM, first compound 0.0949 µM) 3.75% | viability, T/C (second compound 0.003 µM, first compound 0.3 µM) 2.18% | viability, T/C (second compound 0.003 µM, first compound 0.949 µM) 0.36% | viability, T/C (second compound 0.003 µM, first compound 3 µM) 0.11% | viability, T/C (second compound 0.00949 µM, first compound 0.00949 µM) 4.64% | viability, T/C (second compound 0.00949 µM, first compound 0.03 µM) 3.26% | viability, T/C (second compound 0.00949 µM, first compound 0.0949 µM) 2.57% | viability, T/C (second compound 0.00949 µM, first compound 0.3 µM) 1.53% | viability, T/C (second compound 0.00949 µM, first compound 0.949 µM) 0.14% | viability, T/C (second compound 0.00949 µM, first compound 3 µM) 0.09% | viability, T/C (second compound 0.03 µM, first compound 0.00949 µM) 1.95% | viability, T/C (second compound 0.03 µM, first compound 0.03 µM) 2.01% | viability, T/C (second compound 0.03 µM, first compound 0.0949 µM) 2.63% | viability, T/C (second compound 0.03 µM, first compound 0.3 µM) 2.32% | viability, T/C (second compound 0.03 µM, first compound 0.949 µM) 0.17% | viability, T/C (second compound 0.03 µM, first compound 3 µM) 0.1% | viability, T/C (second compound 0.0949 µM, first compound 0.00949 µM) 1.79% | viability, T/C (second compound 0.0949 µM, first compound 0.03 µM) 1.82% | viability, T/C (second compound 0.0949 µM, first compound 0.0949 µM) 2.21% | viability, T/C (second compound 0.0949 µM, first compound 0.3 µM) 1.43% | viability, T/C (second compound 0.0949 µM, first compound 0.949 µM) 0.17% | viability, T/C (second compound 0.0949 µM, first compound 3 µM) 0.11% | viability, T/C (second compound 0.3 µM, first compound 0.00949 µM) 1.93% | viability, T/C (second compound 0.3 µM, first compound 0.03 µM) 1.65% | viability, T/C (second compound 0.3 µM, first compound 0.0949 µM) 1.95% | viability, T/C (second compound 0.3 µM, first compound 0.3 µM) 1.63% | viability, T/C (second compound 0.3 µM, first compound 0.949 µM) 0.24% | viability, T/C (second compound 0.3 µM, first compound 3 µM) 0.17%
inactive: viability, T/C (second compound 0.003 µM, first compound 0.00949 µM) 85.4% | viability, T/C (second compound 0.003 µM, first compound 0.03 µM) 42.5%
< 9.49 nM: IC50 (curve of first compound, second compound 0.00949 µM) | IC50 (curve of first compound, second compound 0.03 µM) | IC50 (curve of first compound, second compound 0.0949 µM) | IC50 (curve of first compound, second compound 0.3 µM)
24.5 nM: IC50 (curve of first compound, second compound 0.003 µM)

[2H]c1nc(C)nc([2H])c1-c1cc(NC[C@@H](C)c2cccc3c(C(=O)NC)ccnc23)ncn1
> 10000 nM: IC50 (curve of compound)
inactive: viability, T/C (compound 0.0316 µM) 107% and 105% and 96.2% | viability, T/C (compound 0.1 µM) 105% and 104% and 102% | viability, T/C (compound 0.316 µM) 105% (2×) and 102% | viability, T/C (compound 1 µM) 105% and 99% and 98.5% | viability, T/C (compound 3.16 µM) 104% (2×) and 96.3% | viability, T/C (compound 10 µM) 100% and 95.5% and 101%

CC1COCCN1c1cc(-c2ccnn2C)c2ccnc(-c3ccn[nH]3)c2n1 (stereo not drawn)
active: viability, T/C (compound 0.1 µM) 3.02% and 9.27% and 5.04% | viability, T/C (compound 0.316 µM) 1.96% and 2.61% and 2.62% | viability, T/C (compound 1 µM) 1.13% and 1.61% and 1.44% | viability, T/C (compound 3.16 µM) 0.59% and 0.92% and 0.71% | viability, T/C (compound 10 µM) 0.6% and 0.99% and 0.58%
< 31.6 nM and 32.1 nM: IC50 (curve of compound)

— PubChem BioAssay AID1845219 (Molecular Pharmacology Branch, DTP, NCI, 2023)
